Source: PubChem BioAssay AID1963836 (Molecular Pharmacology Branch, DTP, NCI, 2024)

Tested on: 857933-349-R-J2-PDC complex spheroid viability
Assay: Anticancer human tumor 857933-349-R-J2-PDC patient-derived colon adenocarcinoma cell line growth inhibition [POLQ]
Conditions: for IC50: curve of first compound; for viability, T/C: stronger effect = lower value; active = viability on the fitted dose curve at most 10% of control; inactive = the rest
Experimental: Multicellular complex tumor spheroid response to Polymerase (POL) inhibitors (novobiocin, ART-558, RP6685) in combination with a variety of drugs and investigational agents in selected tumor cell lines
The POL inhibitors (novobiocin, ART-558, and RP6685) were evaluated both individually and in combination with standard of care and investigational anticancer small molecules within a complex spheroid model of solid tumors. . Complex spheroids include a stromal component modeled by human endothelial cells (HUVEC) and fibroblasts modeled by human mesenchymal stem cells (MSCs). The concentration ranges selected for each drug and investigational agent were based upon clinically achievable concentrations if the clinical Cmax of the agent was known.
Compounds. The drugs and investigational agents: novobiocin (NSC847541), ART-558 (NSC835418), RP-6685 (NSC848927), peposertib (NSC802822), ceralasertib (NSC780249), elimusertib (NSC800525), camonsertib (NSC841442), AZD-1390 (NSC803789), olaparib (NSC753686), talazoparib (NSC767125), rucaparib (NSC756644), sotorasib (NSC818433), MRTX-1133 (NSC836407), SN-38 (NSC673596), topotecan (NSC609699), epotoside (NSC141540), doxorubicin (NSC123127), gemcitabine (NSC613327), 5-fluorouracil (NSC19893), paclitaxel (NSC125973), vemurafenib (NSC761431), MSA-2 (NSC828583), SN-011 (NSC837082), adavosertib (NSC754352), prexasertib (NSC758257), carboplatin (NSC241240) and oxaliplatin (NSC266046), were obtained from the National Cancer Institute (NCI) Developmental Therapeutics Program Chemical Repository (21). The FDA-approved anticancer drug set is available from the Developmental Therapeutics Program at https://dtp.cancer.gov/organization/dscb/obtaining/. […] The stock solutions were prepared in dimethyl sulfoxide (DMSO, Sigma-Aldrich, St. Louis, MO, cat. D2650), except for the platinum compounds which were prepared in saline (Quality Biological, Gaithersburg, MD, cat. 114-055-101), at 800-fold the tested concentration and stored at -70 degrees C prior to their use. All drugs and investigational agents were tested over a range starting from a high concentration at or near the clinical Cmax and decreasing in half-log increments. If the clinical Cmax for an agent had not been determined, the highest concentration tested was 10 microM, except for SN-38, which was tested at a high concentration of 1 microM.
Cell Culture. All cells were maintained in an incubator at 37 degrees C and 5% CO2 with 95% humidity. The PDC lines were cultured according to standard operating procedures established by the NCI PDMR (https://pdmr.cancer.gov). Table 3 of the manuscript, lists the cell lines along with the number of the three cell types plated to form the mct-spheroids and media for tumor cell growth. After thawing, all PDC lines, except 997537-175-T-J1-PDC and 415267-285-R-J2-PDC, were cultured in Matrigel-coated flasks prepared with a working solution of 1X Ham's F-12 nutrient mix, without supplementation (Thermo Fisher Scientific, cat. 11765054), 100 U/mL penicillin-streptomycin (Thermo Fisher Scientific, cat. 15140122), and 2.5% Matrigel (Corning Inc., Corning, NY, cat. 354248) for the first three passages. The two PDC lines 997537-175-T-J1-PDC and 415267-285-R-J2-PDC were cultured on uncoated flasks. The 857933-349-R-J2-PDC line was cultured in 6C/Colon 1B media containing advanced DMEM/F-12 (Thermo Fisher Scientific, cat. 12634028), 10 mM HEPES (Thermo Fisher Scientific, cat. 15630080), 1X GlutaMAX supplement (Thermo Fisher Scientific, cat. 35050061), 0.1 mg/mL primocin (InvivoGen, San Diego, CA, cat. ant-pm-2), 10% defined fetal bovine serum, heat inactivated (HyClone Laboratories Inc., Logan, UT, cat. SH30070.03HI), 50% L-WRN conditioned media (ATCC, cat. CRL-3276), 1.25 mM N-Acetyl-L-cysteine (Sigma-Aldrich, cat. A9165), 10 mM nicotinamide (Sigma-Aldrich, cat. N0636), 1X B-27 supplement (Thermo Fisher Scientific, cat. 17504044), 1X N-2 supplement (Thermo Fisher Scientific, cat. […]

[1] = second compound 0.0316 µM, first compound 0.0316 µM
[2] = second compound 0.0316 µM, first compound 0.1 µM
[3] = second compound 0.0316 µM, first compound 0.316 µM
[4] = second compound 0.0316 µM, first compound 1 µM
[5] = second compound 0.1 µM, first compound 0.0316 µM
[6] = second compound 0.1 µM, first compound 0.1 µM
[7] = second compound 0.1 µM, first compound 0.316 µM
[8] = second compound 0.1 µM, first compound 1 µM
[9] = second compound 0.316 µM, first compound 0.0316 µM
[10] = second compound 0.316 µM, first compound 0.1 µM
[11] = second compound 0.316 µM, first compound 0.316 µM
[12] = second compound 0.316 µM, first compound 1 µM
[13] = second compound 1 µM, first compound 0.0316 µM
[14] = second compound 1 µM, first compound 0.1 µM
[15] = second compound 1 µM, first compound 0.316 µM
[16] = second compound 1 µM, first compound 1 µM
[17] = second compound 3.16 µM, first compound 0.0316 µM
[18] = second compound 3.16 µM, first compound 0.1 µM
[19] = second compound 3.16 µM, first compound 0.316 µM
[20] = second compound 3.16 µM, first compound 1 µM
[21] = second compound 10 µM, first compound 0.0316 µM
[22] = second compound 10 µM, first compound 0.1 µM
[23] = second compound 10 µM, first compound 0.316 µM
[24] = second compound 10 µM, first compound 1 µM
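Also: spheroids exposed to compounds for seven days before readout.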

COc1cccc(OCCCN)c1-c1cc(Nc2cnc(C#N)cn2)n[nH]1 + Cc1cccc(N(C)C(=O)C2C(O)CCN2c2nc(C)cc(C(F)(F)F)c2C#N)c1
> 1000 nM: IC50 (second compound 0.1 µM) | IC50 (second compound 0.316 µM) | IC50 (second compound 1 µM) | IC50 (second compound 10 µM)
511 nM: IC50 (second compound 3.16 µM)
763 nM: IC50 (second compound 0.0316 µM)
inactive: viability, T/C (second compound 0.0316 µM, first compound 0.00316 µM) 96.2% | viability, T/C (second compound 0.0316 µM, first compound 0.01 µM) 94.5% | viability, T/C [1] 97% | viability, T/C [2] 86.9% | viability, T/C [3] 64.6% | viability, T/C [4] 45.5% | viability, T/C (second compound 0.1 µM, first compound 0.00316 µM) 105% | viability, T/C (second compound 0.1 µM, first compound 0.01 µM) 84.2% | viability, T/C [5] 89.2% | viability, T/C [6] 73% | viability, T/C [7] 66.3% | viability, T/C [8] 50.7% | viability, T/C (second compound 0.316 µM, first compound 0.00316 µM) 102% | viability, T/C (second compound 0.316 µM, first compound 0.01 µM) 99.8% | viability, T/C [9] 90.9% | viability, T/C [10] 56.8% | viability, T/C [11] 61% | viability, T/C [12] 55.5% | viability, T/C (second compound 1 µM, first compound 0.00316 µM) 110% | viability, T/C (second compound 1 µM, first compound 0.01 µM) 96.3% | viability, T/C [13] 85.6% | viability, T/C [14] 83% | viability, T/C [15] 56.4% | viability, T/C [16] 52.9% | viability, T/C (second compound 3.16 µM, first compound 0.00316 µM) 98.7% | viability, T/C (second compound 3.16 µM, first compound 0.01 µM) 110% | viability, T/C [17] 81.8% | viability, T/C [18] 69.6% | viability, T/C [19] 59.9% | viability, T/C [20] 40.7% | viability, T/C (second compound 10 µM, first compound 0.00316 µM) 90.8% | viability, T/C (second compound 10 µM, first compound 0.01 µM) 86.5% | viability, T/C [21] 77.4% | viability, T/C [22] 67.9% | viability, T/C [23] 61.2% | viability, T/C [24] 52.5%

COc1cccc2c1C(=O)c1c(O)c3c(c(O)c1C2=O)CC(O)(C(=O)CO)CC3OC1CC(N)C(O)C(C)O1 (centres undefined) + Nc1ccc(C#CCN(C(=O)Cc2ncc(C(F)(F)F)cc2C(F)(F)F)c2ccc(F)cc2)nn1
220 nM: IC50 (second compound 0.0316 µM)
175 nM: IC50 (second compound 3.16 µM)
216 nM: IC50 (second compound 1 µM)
149 nM: IC50 (second compound 10 µM)
inactive: viability, T/C [1] 74.9% | viability, T/C [2] 63% | viability, T/C [3] 43.9% | viability, T/C [5] 74.3% | viability, T/C [6] 67.1% | viability, T/C [7] 40.7% | viability, T/C [9] 65% | viability, T/C [10] 85.6% | viability, T/C [11] 41.1% | viability, T/C [13] 83% | viability, T/C [14] 75.7% | viability, T/C [15] 36.9% | viability, T/C [17] 72.5% | viability, T/C [18] 60.4% | viability, T/C [19] 37.9% | viability, T/C [21] 66.9% | viability, T/C [22] 63% | viability, T/C [23] 26.8%
active: viability, T/C [4] 5.65% | viability, T/C (second compound 0.0316 µM, first compound 3.16 µM) 0.31% | viability, T/C (second compound 0.0316 µM, first compound 10 µM) 0.26% | viability, T/C [8] 5.86% | viability, T/C (second compound 0.1 µM, first compound 3.16 µM) 0.25% | viability, T/C (second compound 0.1 µM, first compound 10 µM) 0.17% | viability, T/C [12] 5.61% | viability, T/C (second compound 0.316 µM, first compound 3.16 µM) 0.2% | viability, T/C (second compound 0.316 µM, first compound 10 µM) 0.19% | viability, T/C [16] 9.45% | viability, T/C (second compound 1 µM, first compound 3.16 µM) 0.22% | viability, T/C (second compound 1 µM, first compound 10 µM) 0.23% | viability, T/C [20] 5.43% | viability, T/C (second compound 3.16 µM, first compound 3.16 µM) 0.39% | viability, T/C (second compound 3.16 µM, first compound 10 µM) 0.28% | viability, T/C [24] 6.24% | viability, T/C (second compound 10 µM, first compound 3.16 µM) 0.35% | viability, T/C (second compound 10 µM, first compound 10 µM) 0.32%
212 nM: IC50 (second compound 0.1 µM)
234 nM: IC50 (second compound 0.316 µM)
